Converted amounts (≈) assume the structure as drawn.
Key:
Experiment in all cases: in vitro antibacterial evaluation, MIC by broth dilution
Assay type in all cases: cell-based
[1] = test system: Staphylococcus sp.; settings: broth dilution, 18 hours at 35° C.
How it was run: (§1)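 Broth dilution per NCCLS standard M7-A2 in Muller-Hinton II […], with an inoculum of 5×10^5 CFU/mL and antibiotic spanning 64-0.06 μg/mL. The MIC is the lowest concentration that inhibits growth of the organism.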

[2] = test system: Streptococcus sp.; settings: broth dilution, 18 hours at 35° C.
How it was run: as §1

[3] = test system: Enterococcus sp.; settings: broth dilution, 18 hours at 35° C.
How it was run: as §1

[4] = test system: Escherichia coli; settings: 18 hours at 35° C.
How it was run: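 Following National Committee for Clinical Laboratory Standards recommendations (M7-A2), susceptibility was measured by dilution in Muller-Hinton II […]. Bacteria were seeded at 5×10^5 CFU/mL against compound concentrations from 64 down to 0.06 μg/mL.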

`CC(C)CCC(=O)OC1C(OC2C(CO)OC(Oc3ccc(CC4NC(=O)C(C(C)c5ccccc5)NC(=O)CNC(=O)C(CO)NC(=O)C(C(O)C5CNC(=N)N5C5OC(CO)C(O)C(O)C5O)NC(=O)C(C(O)C5CNC(=N)N5)NC4=O)cc3)C(O)C2O)OC(CO)C(O)C1O` (stereo not drawn) [Example 270a, Cyclo[glycyl-β-methylphenylalanyl-O-[4-O-[2-O-(4-methylventanovl)hexopyranosyl]-hexopyranosyl]tyrosyl-3-(2-iminoimidazolidin-4-yl)seryl-3-(3-hexopyranosyl-2-iminoimidazolidin-4-yl)serylseryl]] was tested, and the “MIC Coagulase Negative Staphylococcus (GC 4547)” value [1] was 2 µg/mL (≈ 1.44 µM), the “MIC Coagulase Negative Staphylococcus (GC 4548)” value [1] was 2 µg/mL (≈ 1.44 µM) and the “MIC Coagulase Negative Staphylococcus (GC 4549)” value [1] was 2 µg/mL (≈ 1.44 µM). The “MIC Coagulase Negative Staphylococcus (GC 4551)” value [1] was 4 µg/mL (≈ 2.87 µM), the “MIC Staphylococcus aureus (ATCC 29213)” value [1] was 4 µg/mL (≈ 2.87 µM) and the “MIC Staphylococcus aureus (GC 1131)” value [1] was 4 µg/mL (≈ 2.87 µM). The “MIC Staphylococcus aureus (GC 4541)” value [1] was 4 µg/mL (≈ 2.87 µM), the “MIC Staphylococcus aureus (GC 4542)” value [1] was 4 µg/mL (≈ 2.87 µM) and the “MIC Staphylococcus aureus (GC 4544)” value [1] was 4 µg/mL (≈ 2.87 µM). The “MIC Staphylococcus aureus (GC 4545)” value [1] was 4 µg/mL (≈ 2.87 µM), the “MIC Staphylococcus aureus-SMITH (GC 4543)” value [1] was 4 µg/mL (≈ 2.87 µM) and the “MIC Staphylococcus haemolyticus (GC 4546)” value [1] was 2 µg/mL (≈ 1.44 µM). The “MIC Staphylococcus aureus (ATCC 29213)” value ([1]; strain ATCC 29213) was 4 µg/mL (≈ 2.87 µM), the “MIC Staphylococcus aureus (GC 1131)” value ([1]; strain GC 1131) was 4 µg/mL (≈ 2.87 µM) and the “MIC Staphylococcus aureus (GC 4541)” value ([1]; strain GC 4541) was 4 µg/mL (≈ 2.87 µM). The “MIC Staphylococcus aureus (GC 4542)” value ([1]; strain GC 4542) was 4 µg/mL (≈ 2.87 µM), the “MIC Staphylococcus aureus (GC 4544)” value ([1]; strain GC 4544) was 4 µg/mL (≈ 2.87 µM) and the “MIC Staphylococcus aureus (GC 4545)” value ([1]; strain GC 4545) was 4 µg/mL (≈ 2.87 µM). For the same compound, the “MIC Staphylococcus haemolyticus (GC 4546)” value ([1]; strain GC 4546) was 2 µg/mL (≈ 1.44 µM), the “MIC Coagulase Negative Staphylococcus (GC 4547)” value ([1]; strain GC 4547) was 2 µg/mL (≈ 1.44 µM) and the “MIC Coagulase Negative Staphylococcus (GC 4548)” value ([1]; strain GC 4548) was 2 µg/mL (≈ 1.44 µM). The “MIC Coagulase Negative Staphylococcus (GC 4549)” value ([1]; strain GC 4549) was 2 µg/mL (≈ 1.44 µM), the “MIC Coagulase Negative Staphylococcus (GC 4551)” value ([1]; strain GC 4551) was 4 µg/mL (≈ 2.87 µM) and the “MIC Staphylococcus aureus-SMITH (GC 4543)” value ([1]; strain SMITH GC 4543) was 4 µg/mL (≈ 2.87 µM). The “MIC Streptococcus agalactiae (GC 4564)” value ([2]; strain GC 4564) was 1 µg/mL (≈ 0.718 µM), the “MIC Streptococcus pyogenes (ID-3187)” value ([2]; strain ID-3187) was 1 µg/mL (≈ 0.718 µM) and the “MIC Enterococcus avium (GC 4558)” value ([3]; Enterococcus avium (GC 4558)) was 16 µg/mL (≈ 11.5 µM). For the same compound, the “MIC Enterococcus faecalis (ATCC 29212)” value ([3]; Enterococcus faecalis (ATCC 29212)) was 16 µg/mL (≈ 11.5 µM), the “MIC Enterococcus faecalis (GC 4553)” value ([3]; Enterococcus faecalis (GC 4553)) was 16 µg/mL (≈ 11.5 µM) and the “MIC Enterococcus faecalis (GC 4554)” value ([3]; Enterococcus faecalis (GC 4554)) was 32 µg/mL (≈ 23 µM). The “MIC Enterococcus faecium (GC 2243)” value ([3]; Enterococcus faecium (GC 2243)) was 16 µg/mL (≈ 11.5 µM), the “MIC Enterococcus faecium (GC 4556)” value ([3]; Enterococcus faecium (GC 4556)) was 16 µg/mL (≈ 11.5 µM) and the “MIC Enterococcus faecium (GC 4557)” value ([3]; Enterococcus faecium (GC 4557)) was 4 µg/mL (≈ 2.87 µM). For the same compound, the “MIC Enterococcus faecalis (ATCC 29212)” value ([3]; strain ATCC 29212) was 16 µg/mL (≈ 11.5 µM), the “MIC Enterococcus faecalis (GC 2242)” value ([3]; strain GC 2242) was 16 µg/mL (≈ 11.5 µM) and the “MIC Enterococcus faecium (GC 2243)” value ([3]; strain GC 2243) was 16 µg/mL (≈ 11.5 µM). For the same compound, the “MIC Enterococcus faecalis (GC 4552)” value ([3]; strain GC 4552) was 16 µg/mL (≈ 11.5 µM), the “MIC Enterococcus faecalis (GC 4553)” value ([3]; strain GC 4553) was 16 µg/mL (≈ 11.5 µM) and the “MIC Enterococcus faecalis (GC 4554)” value ([3]; strain GC 4554) was 32 µg/mL (≈ 23 µM). The “MIC Enterococcus faecium (GC 4556)” value ([3]; strain GC 4556) was 16 µg/mL (≈ 11.5 µM), the “MIC Enterococcus faecium (GC 4557)” value ([3]; strain GC 4557) was 4 µg/mL (≈ 2.87 µM) and the “MIC Enterococcus avium (GC 4558)” value ([3]; strain GC 4558) was 16 µg/mL (≈ 11.5 µM). The “MIC Escherichia coli (ATCC 25922)” value ([4]; Escherichia coli (ATCC 25922)) was greater than 64 µg/mL, the “MIC Escherichia coli (GC 4559)” value ([4]; Escherichia coli (GC 4559)) was greater than 64 µg/mL and the “MIC Escherichia coli (GC 4560)” value ([4]; Escherichia coli (GC 4560)) was 2 µg/mL (≈ 1.44 µM).

— US6914045B2, “Glycopeptide antibiotics” (Wyeth Holdings Corporation, priority 2001, dated 2005)
